From patent US6395785B1 (Orion Corporation, priority 1998, dated 2002)
Where two headings read alike, the source gives them in different places.

Key:
[1] = system: estrogen-induced increase in uterine weight
Procedure: (§1) The estrogenic/antiestrogenic activity of the study drug was tested by measuring the effect on the uterine weight in immature (18 days old) female Sprague-Dawley rats. The compound was given p.o. in a PEG-solution for 3 days (n=5/group). At the same time the ability of the study drug to inhibit estrogen-induced increase in uterine weight was studied in rats given estradiol 50 μg/kg s.c. Comparison was made with the corresponding Z-isomer.

[2] = system: uterine weight in immature female Sprague-Dawley rats; details: for Average uterine weight (weight after mere E2-treatment was taken as 1.00): drug alone
Procedure: as §1

[3] = system: Hep G2 cell cultures; details: for Cholesterol biosynthesis level (% of control): 2 hours, Hep G2; for Effect on cholesterol biosynthesis (in words): in vitro cell culture system, 0.01 to 10 micromolar
Procedure: The effects on cholesterol biosynthesis was studied in vitro in Hep G2 cell cultures using ^14C-acetate as cholesterol precursor. The test compound was added into the culture medium at concentrations from 0.01 to 10 micromolar. After 2 hours the culture was stopped and the newly synthesized cholesterol was quantitated by thin-layer chromatography. Comparison was made with the Z-isomer.

[4] = system: uterine weight in ovarectomized adult female Sprague-Dawley rats; experiment: Uterine weight in ovarectomized adult female rats; format: in vivo; details: for Relative uterine weight (control level taken as 1.00): ovarectomized rats
Procedure: (§2) The effects on uterine weight and on serum cholesterol levels were studied in intact and ovarectomized adult female Sprague-Dawley rats. […] In the ovarectomy study the study drug was given p.o. at a daily dose of 0.1, 1 or 10 mg/kg for 4 weeks and comparison was made with the corresponding Z-isomer and estradiol (100 μg/kg). The serum cholesterol content was determined by an enzymatic method. In the ovarectomy study the serum cholesterol and cholesterol precursor molecule content was determined by gas-liquid chromatography.

[5] = system: serum cholesterol; details: for Serum cholesterol content (control level taken as 1.00): ovarectomized rats; for Decrease of serum cholesterol level (maximum): ovarectomy study, over the doses tested
Procedure: as §2

[6] = system: serum cholesterol precursor molecule; details: ovarectomy study
Procedure: as §2

[7] = system: uterine weight in intact adult female Sprague-Dawley rats; experiment: Uterine weight in intact adult female rats; details: p.o. 3.17 mg/kg daily or equimolar dose, two weeks
Procedure: as §2

[8] = system: serum cholesterol; experiment: Serum cholesterol in intact adult female rats; details: for Serum cholesterol content (control level taken as 1.00; mean ± SD, n = 3): intact rats, p.o. 3.17 mg/kg daily or equimolar dose, two weeks
Procedure: as §2

[9] = 0.1 mg/kg p.o. for 3 days + E2 (estradiol 50 μg/kg s.c.)
[10] = 0.5 mg/kg p.o. for 3 days + E2 (estradiol 50 μg/kg s.c.)
[11] = 1 mg/kg p.o. for 3 days + E2 (estradiol 50 μg/kg s.c.)
[12] = 10 mg/kg p.o. for 3 days + E2 (estradiol 50 μg/kg s.c.)

Row | SMILES | Average uterine weight (weight after mere E2-treatment was taken as 1.00) [1, 9] | Average uterine weight (weight after mere E2-treatment was taken as 1.00) [1, 10] | Average uterine weight (weight after mere E2-treatment was taken as 1.00) [1, 11] | Average uterine weight (weight after mere E2-treatment was taken as 1.00) [1, 12] | Average uterine weight (weight after mere E2-treatment was taken as 1.00) ([2]; 0.1 mg/kg p.o. for 3 days) | Average uterine weight (weight after mere E2-treatment was taken as 1.00) ([2]; 0.5 mg/kg p.o. for 3 days) | Average uterine weight (weight after mere E2-treatment was taken as 1.00) ([2]; 1 mg/kg p.o. for 3 days) | Average uterine weight (weight after mere E2-treatment was taken as 1.00) ([2]; 10 mg/kg p.o. for 3 days) | Cholesterol biosynthesis level (% of control) ([3]; 0.01 μM) | Cholesterol biosynthesis level (% of control) ([3]; 0.1 μM) | Cholesterol biosynthesis level (% of control) ([3]; 1 μM) | Cholesterol biosynthesis level (% of control) ([3]; 10 μM) | Effect on cholesterol biosynthesis (in words) [3] | Relative uterine weight (control level taken as 1.00) ([4]; 0.1 mg/kg p.o. daily, 4 weeks) | Relative uterine weight (control level taken as 1.00) ([4]; 1 mg/kg p.o. daily, 4 weeks) | Relative uterine weight (control level taken as 1.00) ([4]; 10 mg/kg p.o. daily, 4 weeks) | Serum cholesterol content (control level taken as 1.00) ([5]; 1 mg/kg p.o. daily, 4 weeks) | Serum cholesterol content (control level taken as 1.00) ([5]; 10 mg/kg p.o. daily, 4 weeks) | Relative uterine weight (control level taken as 1.00; mean ± SD, n = 3) [7] | Serum cholesterol content (control level taken as 1.00; mean ± SD, n = 3) [8] | further results
1 | OCCOc1ccc(/C(=C(/CCCl)c2ccccc2)c2ccccc2)cc1 [1271a (Z), Z-2-[4-(4-chloro-1,2-diphenyl-but-1-enyl)phenoxy]ethanol] | 1.18 | 1.11 | 0.91 | 0.91 | 0.27 | 0.43 | 0.53 | 0.75 | 143 % of control | 127 % of control | 129 % of control | 132 % of control | had an opposite effect | 1.22 | 1.78 | 2.04 | 0.96 | 0.66 | 0.75 ± 0.06 | 0.65 ± 0.10 | Serum cholesterol content (control level taken as 1.00) ([5]; 0.5 mg/kg): 0.90; Serum cholesterol content (control level taken as 1.00) ([5]; 5 mg/kg): 0.89; Decrease of serum cholesterol level (maximum) [5]: up to 34%; Effect on serum cholesterol precursor molecule level (in words) [6]: not; Efficacy in decreasing serum cholesterol level (in words) ([8]; intact adult female rats, compared with the other drugs): less effective
2 | OCCOc1ccc(/C(=C(\CCCl)c2ccccc2)c2ccccc2)cc1 [1271b (E), E-2-[4-(4-chloro-1,2-diphenyl-but-1-enyl)phenoxy]ethanol] | 0.81 | 0.82 | 0.57 | 0.83 | 0.37 | 0.45 | 0.44 | 0.75 | 89 % of control | 90 % of control | 89 % of control | 84 % of control | inhibited slightly cholesterol biosynthesis | 1.54 | 1.50 | 1.53 | 0.62 | 0.23 | 0.85 ± 0.07 | 0.43 ± 0.05 | Estrogenic and antiestrogenic effect compared to the corresponding Z-isomer (in words) ([2]; immature rat uterine weight test): approximately equal estrogenic and antiestrogenic effect; Increase of relative uterus weight ([4]; ovarectomy study, 0.1, 1 or 10 mg/kg p.o., 4 weeks): 1.5 fold; Serum cholesterol content (control level taken as 1.00) ([5]; 0.1 mg/kg p.o. daily, 4 weeks): 0.92; Decrease of serum cholesterol level (maximum) [5]: up to 77%; Effect on serum cholesterol precursor molecule level (in words) [6]: increased slightly
3 | C[C@]12CC[C@@H]3c4ccc(O)cc4CC[C@H]3[C@@H]1CC[C@@H]2O [Estradiol] | – | – | – | – | – | – | – | – | – | – | – | – | – | – | – | – | – | – | 1.29 ± 0.06 | 0.48 ± 0.09 | Increase of relative uterus weight ([4]; ovarectomy study, estradiol 100 μg/kg): 3.3 fold
4 | O=C(c1ccc(OCCN2CCCCC2)cc1)c1c(-c2ccc(O)cc2)sc2cc(O)ccc12 [Raloxifene] | – | – | – | – | – | – | – | – | – | – | – | – | – | – | – | – | – | – | 0.77 ± 0.21 | 0.48 ± 0.09 | –
5 | CN(C)CCOc1ccc(/C(=C(/CCCl)c2ccccc2)c2ccccc2)cc1 [Toremifene (E)] | – | – | – | – | – | – | – | – | – | – | – | – | – | – | – | – | – | – | 1.09 ± 0.10 | 0.40 ± 0.18 | –
